From ChEMBL document CHEMBL3507680, “University of Dundee, Gates Library screen for HepG2 cell viability”

test: Human HepG2 cell viability assay in 384 well format; format: toxicity, cell-based; set-up: dose 125 nL, time 70.5 hour; concentration not given beside the values; conditions: HepG2 cells, read-out: Inhibition

| SMILES | cytotoxicity at 70.5 h [%] |
| --- | --- |
| CCOC(=O)c1c(NC(=O)CN2CCN(C(C)=O)CC2)sc2c1CCC2 | -0.965 |
| CNC(=O)C1CCCCN1C(=O)c1cn(CCOC)c2ccccc12 (centres undefined) | 0.571 |
| CC(C)Oc1ccccc1CNC(=O)N(C)CC(F)F | -3.01 |
| CC1CCCN(Cc2ccc(CNC(=O)NCc3ccncc3)cc2)C1 (centres undefined) | -5.32 |
| N#Cc1ccc(OCCNc2cccc(C(=O)N3CCOCC3)c2)cc1 | -13.9 |
| O=C(c1cccnc1-n1cncn1)N1CCc2ccccc2C1 | -10.4 |
| Cc1ccc(C(=O)N2C[C@@H]3CC[C@H](C2)N(Cc2ccccc2)C3)cn1 | 17.8 |
| Cc1[nH]/c(=N\C(=O)c2csc(NC3CC3)n2)sc1C | -5.91 |
| CC[C@@H]1N(C)CCC[C@]12CCC(=O)N2Cc1ccncc1 | 0.423 |
| CN(Cc1ccco1)C[C@H]1OC[C@@H]2CN(c3ncc(F)cn3)CC[C@@H]21 | -1.81 |
| CNC(=O)N1CCC2(CC1)c1ncc(-c3cccc(F)c3)n1CCN2C | -1.6 |
| Cc1nn(C)c(C)c1C1CCCN1C(=O)c1ccc(N(C)C)nn1 (centres undefined) | -6.36 |
| CCN(CC)C(=O)CN1CCC2(C=Cc3cc(Cl)c(C)cc3O2)CC1 | 7.43 |
| COCCN(CCOC)C(=O)c1cc(F)cc2[nH]cnc12 | -4.53 |
| COc1c(C)cnc(CSc2nnc(NC3CC3)s2)c1C | -1.65 |
| Cc1ccc(SCCCNC(=O)c2cn([C@H]3CC[C@@H](N)CC3)nn2)cc1 | 20.6 |
| CN1CCOC(C(=O)Nc2nc(-c3ccccc3F)n[nH]2)C1 (centres undefined) | -6.97 |
| CO[C@@H]1CC[C@H]2[C@H]1OCCN2C(=O)c1ccco1 | -1.75 |
| COc1c(CNCc2cccnc2OC(C)C)c(C(C)C)nn1C | -8.38 |
| CC(C)(C)c1c[nH]c([C@@H]2COCCN2C2CCNCC2)n1 | -0.308 |
| O=C(c1ncncc1Cl)N1CCC2(CCCC2)CC1 | -5.92 |
| COc1c(CNCCNC(=O)Cc2ccc(F)cc2)c(C)nn1C | 34.8 |
| CCOc1ccccc1OC1CCN(C(=O)c2ccc(=O)[nH]n2)CC1 | -7.24 |

| SMILES | cytotoxicity at 70.5 h [%] |
| --- | --- |
| CC(C)OCCC1CCCCN1S(C)(=O)=O (centres undefined) | -8.81 |
| Cc1nc(CN(C)c2cc(N3CCCC3CO)ncn2)cs1 (centres undefined) | -3.26 |
| COCCO[C@H]1CCN(c2ccc(C)nn2)[C@H]1Cc1cnn(C)c1 | -3.27 |
| CCN1CCOC(CNCc2cccc(OCc3ccccn3)c2)C1 (centres undefined) | -6.84 |
| CCNC(=O)N1C[C@@H]2OCC(=O)N(CC3CC3)[C@@H]2C1 | -3.79 |
| O=C(NCc1nnc2n1CCCCC2)N1CCC2(CCCCC2)C1 | -6.29 |
| CCOc1ccc(-n2nnc(C(=O)O)c2-c2ccccn2)cc1 | -11.9 |
| Cc1cccc(OCCCN2CCC(N(C)Cc3noc(C)n3)C2)c1 (centres undefined) | 25.5 |
| Cc1cc(C)c(CNC(=O)N(C)Cc2cccc(F)c2)c(=O)[nH]1 | 0.933 |
| O=C1NCC[C@]12CN(Cc1ccsc1)C[C@H]2c1ccccc1 | -4.93 |
| CN(C(=O)CSc1ccccn1)C1CCCN(CCc2ccccc2)C1 (centres undefined) | -7.26 |
| Cc1ccc(Sc2ccc(N3CCC(C(=O)O)CC3)nn2)cc1 | 33.4 |
| CCOc1ccccc1CNS(=O)(=O)c1ccc2c(c1)CCCC(=O)N2 | -9.4 |
| COc1cccc(N2CCN(CCC(=O)NC3CCCCC3)CC2)c1 | 16.7 |
| Cc1cc(CN(C)C(=O)C2CCCN(C(=O)c3cccs3)C2)no1 (centres undefined) | -10.3 |
| COc1ccc(CNC(=O)NC(C)(C(=O)O)c2ccco2)cc1F (centres undefined) | 16.9 |
| CCc1nnc(CN2CCCCC2Cn2nc(C)nc2C)o1 (centres undefined) | -5.83 |
| Cc1ccc(S(=O)(=O)Nc2c(C)nn(C)c2C)cc1C | -5.46 |
| CC(C)Cc1noc(CN2CCOCC2C)n1 (centres undefined) | -1.45 |
| O=C(c1ccnnc1)N1CCC2(CCN(c3ccsc3)C2=O)C1 (centres undefined) | -0.84 |
| CCN(Cc1nc2c(cnn2C)c(=O)[nH]1)c1ccccc1 | 3.68 |
| CCN(C)CC(=O)N1CCC(c2cc(N3CCOCC3)nc(C)n2)CC1 | -11.5 |
| O=C(CN1CCOC1=O)N1CCc2nnc(Cc3ccccc3)n2CC1 | 17.1 |

| SMILES | cytotoxicity at 70.5 h [%] |
| --- | --- |
| Cc1nccnc1N1Cc2cnn(Cc3ccc(F)cc3)c2C1 | -0.0825 |
| O=c1oc(-c2ccc(F)cc2)nn1CC1CCCCO1 (centres undefined) | -3.87 |
| CCS(=O)(=O)c1cccc(C(=O)Nc2cccc3c2C(=O)N(C)C3=O)c1 | 31 |
| CSCc1cc(F)ccc1CNC(=O)N1CCC[C@@H]1CO | -4.06 |
| CSCCC(O)C(=O)N1CCC(OCc2cccnc2)CC1 (centres undefined) | 16.3 |
| Fc1ccc(F)c(CN2CCC(c3cnccn3)CC2)c1 | -5.3 |
| CC(C)Oc1cccc(CNC(Cc2ccsc2)c2nccs2)c1 (centres undefined) | -2.9 |
| Cn1cnc(S(=O)(=O)N2CCN(CC3CC3)c3ncccc3C2)c1 | -6.52 |
| O=C(Nc1ccn(Cc2cccc3cccnc23)n1)C1COCCO1 (centres undefined) | -8.35 |
| Cc1nc(-c2ccccc2)sc1CNC1CCc2ncnn2C1 (centres undefined) | -10.6 |
| CC(=O)N1CCOCC(Cc2ccc3c(ccn3C)c2)C1 (centres undefined) | -0.747 |
| CCn1c(C2CCN(C(=O)c3cc(Cl)no3)CC2)nn(C)c1=O | 39 |
| CC(C1CC1)N(C(=O)NCCCn1nc2ccccn2c1=O)C1CC1 (centres undefined) | 2.18 |
| Cc1cc(C[C@@H]2CCC[C@H]2NCc2c[nH]nc2-c2ccccc2)on1 | 20.7 |
| CCN1CCC(N2C[C@@H](C(=O)O)[C@H](c3cccc(OC)c3)C2)CC1 | -0.816 |
| CC(C)N(C)Cc1n[nH]c2c1CCN(C(=O)c1cc[nH]n1)C2 | 21.5 |
| C[S+]([O-])CCCNCc1cc(F)ccc1Br (centres undefined) | 0.821 |
| Nc1cc2c(nn1)CCN(C(=O)C1CCc3ccccc31)C2 (centres undefined) | -11.2 |
| CC(C)Oc1ccccc1NC(=O)N1CCC(n2cncn2)CC1 | -3.08 |
| CC(c1cccc(F)c1)N1CCN(Cc2nccn2C)CC1 (centres undefined) | -9.9 |
| Cc1cccc(C(=O)NC(C)CN2CCCC2=O)n1 (centres undefined) | 21 |
| CCn1ccnc1CN1CCCC(CO)(Cc2cccc(Cl)c2)C1 (centres undefined) | -1.73 |
| O=C(CC1CCN(c2cccnn2)CC1)NCCO | -6.47 |

| SMILES | cytotoxicity at 70.5 h [%] |
| --- | --- |
| CC(C)(C)CC(=O)N1CC[C@H]2NC(=O)N(Cc3ccccc3)C(=O)[C@H]21 | -4.69 |
| COc1ccc(S(=O)(=O)N2CCC(OCc3ccccn3)C2)cc1Br (centres undefined) | -9.24 |
| Cc1ccc(-c2ccnc(N3CCC4(CC3)CNC(=O)O4)n2)c(C)n1 | -9.43 |
| CCS(=O)(=O)N(C)C1CCN(Cn2ccc(-c3ccc(F)cc3)n2)CC1 | -13.9 |
| O=C(C1CCOCC1)N1CCO[C@H]2[C@H](Oc3cccnc3)CC[C@@H]21 | -3.29 |
| CCOc1cc(C(=O)N2CCOCC2)cc2occc12 | 22.3 |
| CCN(Cc1nc(-c2ccco2)no1)Cc1cccc2c1OCO2 | -3.24 |
| Cc1ccc2c(c1)cc(CN1CC[C@](C)(O)[C@H](C)C1)n2C | -0.93 |
| Cc1ccc(CN2CC(C(=O)N3CCCC3)C3(CCOCC3)C2)s1 (centres undefined) | -9.91 |
| O=C(NC[C@H]1OC[C@@H](NC2CCOCC2)[C@@H]1O)Nc1ccccc1 | 14.3 |
| Cc1nc(NC(=O)N2CCCC(N(C)C)C2)nn1C (centres undefined) | 31.8 |
| CCN(Cc1nccn1C)C(=O)c1ccc(NCc2ccc(C)o2)nc1 | 27.2 |
| CNC(=O)CN1CCO[C@H]2CN(C(=O)c3ccncc3F)C[C@H]21 | -3.77 |
| CC(NC(=O)N1CCCC1)c1ccc(S(N)(=O)=O)cc1 (centres undefined) | -13 |
| CCc1cc(CNC(=O)Nc2cc(F)cc(N3CCCC3)c2)on1 | -11.5 |
| CCCn1cc(-c2cc(C(=O)N(C)C)c3cccc(C)c3n2)cn1 | -7.56 |
| O=C(NCC1COCCO1)c1csc(Cc2ccccc2)n1 (centres undefined) | -4.7 |
| CCc1nnc(CNC2CCN(c3ncnc4c(C)csc34)CC2)s1 | -1.72 |
| CC1CN(C(=O)C2(c3ccc(F)cc3F)CCOCC2)CCO1 (centres undefined) | -2.6 |
| COc1ccc(C2(NC(=O)c3ccc(=O)n(C)n3)CCCC2)cc1 | -12.4 |
| Cc1cc(C)n(CCCNC(=O)C2CCCO2)n1 (centres undefined) | 2.61 |
| N#Cc1ccc(N2CCC(NS(=O)(=O)c3cccs3)CC2)c(F)c1 | -9.83 |
| Cc1ccc(-c2nc(CN3CCN(CC(=O)N(C)C)CC3)cs2)o1 | -5.37 |

| SMILES | cytotoxicity at 70.5 h [%] |
| --- | --- |
| CC(=O)NCCNC(=O)c1cnc(C(C)(C)C)s1 | -8.27 |
| Cc1cnn(CC(C)Nc2nc3ccccc3o2)c1 (centres undefined) | 24.3 |
| O=C1NC2(CCN(C/C=C/c3ccccc3)CC2)CC1c1ccccc1 (centres undefined) | 10.6 |
| Cc1noc(NC(=O)c2cccc(Br)c2)n1 | -0.644 |
| COc1cc(N2CC[C@@H](OC)[C@@H]2Cc2ccccc2)ncn1 | -1.02 |
| CCNc1cc2c(nn1)CCN(C(=O)C1COc3ccccc3O1)C2 (centres undefined) | -12.7 |
| CC(Nc1cccc2c1OCCO2)C(=O)Nc1cccc(C#N)c1 (centres undefined) | 3.49 |
| O=C(c1cc(F)ccc1Br)N1CCN(C(=O)C2CC2)CC1 | 17.3 |
| Cc1c(C2CC(=O)Nc3c2cnn3C(C)(C)C)cnn1C (centres undefined) | -11.8 |
| N#Cc1cccc(N2CCOC3(CNCCOC3)C2)n1 (centres undefined) | 15.5 |
| Cc1cnn(CCNCc2nccn2Cc2ccccc2)c1 | 1.16 |
| COc1cc(N2C[C@@H]3COC[C@@H](Cc4nnc(C)o4)[C@@H]3C2)ncn1 | -0.141 |
| CCN(CC)C1CCN(c2nccc(C3CCCC3)n2)C1 (centres undefined) | -13.5 |
| CN(C)C(CNC(=O)OCC(F)(F)F)c1ccsc1 (centres undefined) | -8.54 |
| CCc1nnc(CN2CCN(c3cccc(OC)c3)C(=O)C2)o1 | 12.1 |
| Cc1noc(C)c1CCCNC(=O)C1CCN(C(C)C)CC1 | -7.17 |
| O=C(NCC1CC1)C1CN(C(=O)c2cccs2)CC12CCOCC2 (centres undefined) | -13.2 |
| CC(C)c1cc(COCCCC(=O)O)no1 | -2.63 |
| COc1ccc(Cl)cc1S(=O)(=O)N(C)CC(=O)Nc1cccnc1 | -5.02 |
| CC(=O)N1CCC1c1cc(N2CCSCC2)nc(C)n1 (centres undefined) | -1.98 |
| O=C(Cc1ccccc1Cl)NCCN1CCC(c2cccs2)CC1 | 1.31 |
| c1nc(COCC2CC2)c2n1CCCN(CC1CC1)C2 | -18.3 |
